The target in test [1] is T1, Type I 5α-Reductase from Human Scalp (Homo sapiens, UniProt P18405).
T1 construct: Scalp punch biopsies from graft recipient sites were obtained from human hair transplant procedures; from tissue; host or cells: human scalp punch biopsies (hair transplant graft recipient sites), homogenate, 100,000×g pellet
T1 sequence (P18405 1-259): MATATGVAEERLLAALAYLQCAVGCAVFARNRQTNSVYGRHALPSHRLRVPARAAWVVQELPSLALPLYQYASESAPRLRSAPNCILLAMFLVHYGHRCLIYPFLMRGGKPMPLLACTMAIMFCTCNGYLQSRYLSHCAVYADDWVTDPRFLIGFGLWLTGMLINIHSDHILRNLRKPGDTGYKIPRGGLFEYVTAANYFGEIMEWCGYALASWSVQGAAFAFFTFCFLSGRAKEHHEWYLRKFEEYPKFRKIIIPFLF
Put plainly: Human Type I 5α-reductase assay (conversion of [3H]-testosterone to 5α-reduced metabolites). The settings on record: pH 7.5, 0.3 μM; 50 nM [3H]-testosterone, pH 7.5, 25°, 180 min; compared to control reaction mixtures; read-out: percent inhibition of Type I AR. The format is biochemical.

For test [2], the target named is T2, Type II 5α-Reductase from Human Prostate (Homo sapiens, UniProt P31213).
T2 construct: The same procedure as above was used for preparations using tissue from prostate surgery; from tissue; host or cells: human prostate tissue from surgery, homogenate, 100,000×g pellet
T2 sequence (P31213 1-254): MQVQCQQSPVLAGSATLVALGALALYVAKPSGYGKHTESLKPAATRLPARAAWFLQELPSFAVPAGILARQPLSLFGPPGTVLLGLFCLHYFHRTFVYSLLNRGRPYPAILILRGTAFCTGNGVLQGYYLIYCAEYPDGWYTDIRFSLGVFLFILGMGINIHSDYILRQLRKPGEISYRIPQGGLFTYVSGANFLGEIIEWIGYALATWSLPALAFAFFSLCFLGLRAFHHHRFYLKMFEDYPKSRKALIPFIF
Put plainly: Human Type II 5α-reductase assay (conversion of [3H]-testosterone to 5α-reduced metabolites). The settings on record: pH 5.5, 0.3 μM; sodium acetate pH 5.5, 25°, 30 min; compared to control reaction mixtures; read-out: percent inhibition of Type II AR. The format is biochemical.

The structures appear in SMILES notation.

By inhibition is commonly meant the drop in the measured response relative to a control, in per cent. On to `CN1C(=O)CC[C@]2(C)c3ccc(-c4ccc([N+](=O)[O-])s4)cc3CC[C@@H]12` [Example 217, (+)-(4aR)-(10bR)-4-methyl-8-(5-nitro-2-thienyl)-10b-methyl-1,2,3,4,4a,5,6,10b-octahydrobenzo[f]quinolin-3-one], for which the figures for the inhibition at 0.3 µM in test [1] and in test [2] were 93% and 33%, respectively.
Take `CN1C(=O)CC[C@]2(C)c3ccc(-c4ccc(Cl)s4)cc3CC[C@@H]12` [Example 218, (+)-(4aR)-(10bR)-4-methyl-8-(5-chloro-2-thienyl)-10b-methyl-1,2,3,4,4a,5,6,10b-octahydrobenzo[f]quinolin-3-one]: the inhibition at 0.3 µM turned out to be 84% in test [1] and 35% in test [2].
In the case of `CN1C(=O)CC[C@]2(C)c3ccc(-c4ccc(Cl)c(F)c4)cc3CC[C@@H]12` [Example 219, (+)-(4aR)-(10bR)-4-methyl-8-(4-chloro-3-fluorophenyl)-10b-methyl-1,2,3,4,4a,5,6,10b-octahydrobenzo[f]quinolin-3-one], the inhibition at 0.3 µM came out at 91% in test [1] and 30% in test [2].
Regarding `CN1C(=O)CC[C@]2(C)c3ccc(-c4ccc(S(N)(=O)=O)cc4)cc3CC[C@@H]12` [Example 220, (+)-(4aR)-(10bR)-4-methyl-8-(4-sulfonamidophenyl)-10b-methyl-1,2,3,4,4a,5,6,10b-octahydrobenzo[f]quinolin-3-one], the inhibition at 0.3 µM in test [1] stood at 67%; in test [2], 26%.
In the same order, the values of `CN1C(=O)CC[C@]2(C)c3ccc(-c4ccc(C(=O)CCCCl)cc4)cc3CC[C@@H]12` [Example 221, (+)-(4aR)-(10bR)-4-methyl-8-[4-(4-chlorobutyryl)phenyl]-10b-methyl-1,2,3,4,4a,5,6,10b-octahydrobenzo[f]quinolin-3-one] are 95% and 26%.
For the compound `CN1C(=O)CC[C@]2(C)c3ccc(-c4ccc5c(c4)C(=O)C(=O)N5)cc3CC[C@@H]12` [Example 223, (+)-(4aR)-(10bR)-4-methyl-8-(2,3-dioxo-5-indolinyl)-10b-methyl-1,2,3,4,4a,5,6,10b-octahydrobenzo[f]quinolin-3-one], the inhibition at 0.3 µM in test [1] is 36%; in test [2], 24%.
As to `CN(C)CCN1C(=O)c2cccc3c(-c4ccc5c(c4)CC[C@H]4N(C)C(=O)CC[C@]54C)ccc(c23)C1=O` [Example 224, (+)-(4aR)-(10bR)-4-methyl-8-(2-(2-dimethylaminoethyl)-1H-benzo<de>isoquinolin-6-yl-1,3-(2H)dione)-10b-methyl-1,2,3,4,4a,5,6,10b-octahydrobenzo[f]quinolin-3-one], the inhibition at 0.3 µM in test [1] is 71%; in test [2], 20%.
In the same order, the values of `CCCN(CCC)[C@@H]1Cc2cc(-c3ccc4c(c3)CC[C@H]3N(C)C(=O)CC[C@]43C)cc3c2[C@@H](C1)CN3C(=O)c1ccccc1` [Example 225, (+)-(4aR)-(10bR)-4-methyl-8-(2aR,4S-1-benzoyl-4-dipropylamino-2,2a,3,4-tetrahydrobenz[cd]-1H-indol-7-yl)-10b-methyl-1,2,3,4,4a,5,6,10b-octahydrobenzo[f]quinolin-3-one] are 47% and 32%.
For the compound `CN1C(=O)CC[C@]2(C)c3ccc(-c4cc5c6c(c4)N(C(=O)c4ccccc4)C[C@@H]6C[C@H](N)C5)cc3CC[C@@H]12` [Example 226, (+)-(4aR)-(10bR)-4-methyl-8-(2aR,4S-1-benzoyl-4-amino-2,2a,3,4-tetrahydrobenz[cd]-1H-indol-7-yl)-10b-methyl-1,2,3,4,4a,5,6,10b-octahydrobenzo[f]quinolin-3-one], the inhibition at 0.3 µM in test [1] is 16%; in test [2], 8%.
As to `CN1C(=O)CC[C@]2(C)c3ccc(-c4cc(F)cc(F)c4)cc3CC[C@@H]12` [Example 227, (+)-(4aR)-(10bR)-4-methyl-8-(3,5-difluorophenyl)-10b-methyl-1,2,3,4,4a,5,6,10b-octahydrobenzo[f]quinolin-3-one], the values for the inhibition at 0.3 µM in test [1] and in test [2] were 97% and 25%, respectively.
